The values below come from patent US4607010A, “Analytical process and means for measuring protease inhibitor capacity of serum” (priority 1984, dated 1986).

Test [1] has as its system Trypsin. Put plainly: Fixed time active-site titration of trypsin with DPCF (fluoride electrode). It is filed as biochemical. The settings on record: for % Active: active concentration as percentage of total mass; for F^-: pH 5.5, two hours, room temperature, mean of duplicates, blank 10.60. The procedure:
(§1) Diphenylcarbamyl fluoride is a specific inactivator for both α-chymotrypsin and trypsin. […] The fixed time pseudoequilibrium can nevertheless be used for the assay of both enzymes since the number of moles of F^- released is stoichiometrically related to the active concentration of either two enzymes.
The reagent solutions were the same as described in Example 1. The assay procedure was however modified in the following manner. Into the plastic beaker, 4.8 ml of assay buffer, […] of either enzyme solution and 100 μl of DPFC solution were added. A blank was prepared in a similar manner by substituting 100 μl of a 2 mM HCl for the enzyme solution. All solutions were left at room temperature for two hours. Following that the F^- concentration was then measured by the fluoride electrode. […]

Test [2] concerns Chymotrypsin. Put plainly: Fixed time active-site titration of chymotrypsin with DPCF (fluoride electrode). The conditions noted are these: for % Active: active concentration as percentage of total mass; for F^-: pH 5.5, two hours, room temperature, mean of duplicates, blank 10.60. In kind it is biochemical. The method, then:
as §1
The reagent solutions were the same as described in Example 1. The assay procedure was however modified in the following manner. Into the plastic beaker, 4.8 ml of assay buffer, […] of either enzyme solution and 100 μl of DPFC solution were added. A blank was prepared in a similar manner by substituting 100 μl of a 2 mM HCl for the enzyme solution. All solutions were left at room temperature for two hours. Following that the F^- concentration was then measured by the fluoride electrode. […].
The difference in the relative-rates of F^- generation with chymotrypsin solution and chymotrypsin solution with serum was used to estimate serum protease inhibitor capacity. The assay buffer and DPCF solution were prepared as described in Example 5. Chymotrypsin solution 2.0 μM corresponding to 1.46 μM active mass was prepared by dilution of stock chymotrypsin solution as described in Example 1.

The mark [3] stands for this setting: enzyme concentration 2 μM (mass).
[4] abbreviates: enzyme concentration 5 μM (mass).
[5] abbreviates: enzyme concentration 10 μM (mass).
The mark [6] stands for this setting: mean over 2, 5 and 10 μM (mass).

In the case of Trypsin, the “% Active” value turned out to be 77.5% in test [1] (setting [3]), 69.4% in test [1] (setting [4]) and 65.7% in test [1] (setting [5]). Moreover, the “F^-” value in test [1] (setting [3]) came to 12.12 µM; in test [1] (setting [4]), 14.00 µM; in test [1] (setting [5]), 17.12 µM. The “% Active Mean ± Stand. Dev.” value in test [1] (setting [6]) is 70.9 ± 4.9%.
In the case of Chymotrypsin, in test [2] (chymotrypsin solution 2.0 μM (mass)), the active concentration worked out at 1.46 µM. For the same substance, the “% Active” value in test [2] (setting [3]) is recorded as 80.0%; in test [2] (setting [4]), 72.2%; in test [2] (setting [5]) it was 70.4%. Besides, the “F^-” value stood at 12.20 µM in test [2] (setting [3]), 14.21 µM in test [2] (setting [4]) and 17.64 µM in test [2] (setting [5]). Besides, the “% Active Mean ± Stand. Dev.” value in test [2] (setting [6]) is reported as 74.2 ± 4.2%.
